Reference: patent US10781204B2, “TYK2 inhibitors and uses thereof” (Nimbus Lakshmi, Inc., priority 2015, dated 2020)

How the values were obtained:
[1] = system: Tyk2-pSTAT4 (IL-12 induced pSTAT4); experiment: IL-12 induced pSTAT4 in human PBMC; assay type: cell-based; details: Homo sapiens, PBMC, 0.5 h, 1.7 ng/mL IL-12, 30 minutes
In short: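 pSTAT4 and total STAT4 quantified by MSD in cell lysates after 30 minutes of 1.7 ng/mL IL-12 stimulation. Beforehand, compound (0.1% DMSO final) sat 1 hr at 37 C on 200,000 thawed buffy-coat PBMC per well in serum-containing medium.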

JAK2 = JAK2 (Homo sapiens (Human), UniProt O60674); experiment: JAK2 radioactive kinase assay; assay type: biochemical; details: ATP 10 μM
Chain of JAK2 (O60674 whole entry): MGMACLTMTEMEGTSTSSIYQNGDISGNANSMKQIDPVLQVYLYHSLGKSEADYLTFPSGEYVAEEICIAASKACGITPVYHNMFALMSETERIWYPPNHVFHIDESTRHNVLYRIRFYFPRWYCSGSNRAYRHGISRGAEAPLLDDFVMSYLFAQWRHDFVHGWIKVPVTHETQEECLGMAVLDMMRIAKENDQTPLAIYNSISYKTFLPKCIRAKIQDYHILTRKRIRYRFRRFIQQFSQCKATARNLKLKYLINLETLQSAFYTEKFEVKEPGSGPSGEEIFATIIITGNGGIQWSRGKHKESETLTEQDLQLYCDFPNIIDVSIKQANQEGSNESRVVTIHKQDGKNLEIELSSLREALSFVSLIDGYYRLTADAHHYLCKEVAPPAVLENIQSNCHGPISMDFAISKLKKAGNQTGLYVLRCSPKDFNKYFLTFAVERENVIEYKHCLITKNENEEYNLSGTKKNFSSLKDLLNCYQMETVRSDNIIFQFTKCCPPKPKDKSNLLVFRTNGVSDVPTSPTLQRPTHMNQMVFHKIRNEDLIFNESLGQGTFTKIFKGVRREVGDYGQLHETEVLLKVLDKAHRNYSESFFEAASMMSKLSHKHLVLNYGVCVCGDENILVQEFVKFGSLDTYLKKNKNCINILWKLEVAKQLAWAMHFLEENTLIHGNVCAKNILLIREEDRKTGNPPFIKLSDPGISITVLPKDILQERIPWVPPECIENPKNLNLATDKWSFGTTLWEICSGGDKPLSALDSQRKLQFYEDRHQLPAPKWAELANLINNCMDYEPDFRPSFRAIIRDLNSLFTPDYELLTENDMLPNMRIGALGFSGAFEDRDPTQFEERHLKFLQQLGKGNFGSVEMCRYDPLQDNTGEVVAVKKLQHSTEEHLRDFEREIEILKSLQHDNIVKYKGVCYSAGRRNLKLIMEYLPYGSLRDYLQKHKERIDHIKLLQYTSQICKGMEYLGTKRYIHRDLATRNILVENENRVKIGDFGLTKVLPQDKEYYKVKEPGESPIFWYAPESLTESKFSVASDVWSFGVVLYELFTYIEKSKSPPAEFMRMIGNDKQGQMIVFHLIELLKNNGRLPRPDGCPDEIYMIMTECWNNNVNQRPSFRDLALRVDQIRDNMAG
In short: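 Radiometric assay in Hepes pH 7.5, MgCl2, EGTA, Brij35, BSA, DTT, 1% DMSO, with 10 μM [33P]ATP, 120 min at room temp; P81 paper capture and counting. […]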

[2] = system: JAK2-pSTAT5 (GM-CSF induced pSTAT5); experiment: GM-CSF induced pSTAT5 in human PBMC; assay type: cell-based; details: Homo sapiens, PBMC, 20 min, 5 ng/mL GM-CSF
In short: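 Thawed human PBMC, 200,000 per well in serum-containing medium, were preincubated 1 hr at 37 C with compound in 0.1% DMSO. GM-CSF at 5 ng/mL final was added for 20 minutes, then pSTAT5 and total STAT5 in lysates were measured by MSD immunoassay.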

TYK2 = TYK2 (Homo sapiens (Human), UniProt P29597); experiment: Tyk2 radioactive kinase assay; assay type: biochemical; details: ATP 10 μM
Chain of TYK2 (P29597 whole entry): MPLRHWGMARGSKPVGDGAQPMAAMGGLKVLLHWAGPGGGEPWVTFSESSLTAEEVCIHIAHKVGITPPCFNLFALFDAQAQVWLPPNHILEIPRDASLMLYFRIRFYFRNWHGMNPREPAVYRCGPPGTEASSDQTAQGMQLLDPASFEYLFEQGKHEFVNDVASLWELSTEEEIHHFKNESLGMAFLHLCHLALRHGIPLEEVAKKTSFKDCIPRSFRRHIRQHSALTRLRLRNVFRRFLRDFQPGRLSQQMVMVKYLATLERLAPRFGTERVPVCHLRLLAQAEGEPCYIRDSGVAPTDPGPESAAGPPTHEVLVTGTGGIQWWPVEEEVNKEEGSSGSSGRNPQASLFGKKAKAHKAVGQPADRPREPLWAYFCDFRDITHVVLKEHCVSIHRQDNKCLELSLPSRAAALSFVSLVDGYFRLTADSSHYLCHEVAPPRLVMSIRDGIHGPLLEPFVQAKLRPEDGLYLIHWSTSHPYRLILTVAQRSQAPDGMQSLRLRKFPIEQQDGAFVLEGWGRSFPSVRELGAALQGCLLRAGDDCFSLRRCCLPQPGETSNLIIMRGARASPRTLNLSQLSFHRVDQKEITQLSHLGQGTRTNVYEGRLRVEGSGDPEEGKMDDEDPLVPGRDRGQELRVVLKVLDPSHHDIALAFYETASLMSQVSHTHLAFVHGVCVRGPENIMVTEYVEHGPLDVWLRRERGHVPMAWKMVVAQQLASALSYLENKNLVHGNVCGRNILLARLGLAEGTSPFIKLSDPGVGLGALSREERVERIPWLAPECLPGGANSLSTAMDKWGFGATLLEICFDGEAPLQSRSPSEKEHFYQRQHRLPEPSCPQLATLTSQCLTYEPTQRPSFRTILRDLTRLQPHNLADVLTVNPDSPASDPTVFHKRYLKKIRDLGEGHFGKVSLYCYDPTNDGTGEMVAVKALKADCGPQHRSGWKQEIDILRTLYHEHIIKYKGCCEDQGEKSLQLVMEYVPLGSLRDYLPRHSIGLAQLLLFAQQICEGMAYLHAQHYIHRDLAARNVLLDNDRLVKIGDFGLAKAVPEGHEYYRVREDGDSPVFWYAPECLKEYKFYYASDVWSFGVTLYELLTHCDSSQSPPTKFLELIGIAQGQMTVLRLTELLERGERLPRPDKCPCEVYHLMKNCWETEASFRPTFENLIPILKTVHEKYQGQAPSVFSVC
In short: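 Recombinant human TYK2 (Invitrogen) was mixed with 20 μM peptide substrate in a buffer of 20 mM Hepes pH 7.5, 10 mM MgCl2, 1 mM EGTA, 0.02% Brij35, 0.02 mg/mL BSA, 0.1 mM […], 2 mM DTT and 1% DMSO, and compounds in DMSO were added. Adding ^33P-ATP (10 μM ATP) started the reaction, which ran 120 min at room temperature. Mixtures were then spotted onto P81 ion-exchange paper, washed thoroughly in 0.75% phosphoric acid, and counted for radioactivity.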

In the case of `N#Cc1cccc(F)c1-c1cc(-c2ccn(C(=O)N3CCOCC3)n2)c2c(n1)CNC2=O` [I-231, 3-fluoro-2-(4-(1-(morpholine-4-carbonyl)-1H-pyrazol-3-yl)-5-oxo-6,7-dihydro-5H-pyrrolo[3,4-b]pyridin-2-yl)benzonitrile], the EC50 [1] is reported as > 2000 nM, the Ki (JAK2) is reported as 100 to 1000 nM and the EC50 [2] is reported as > 2000 nM. It also gave a Ki (TYK2) of 10 to 100 nM.
In the case of `CC(C)c1ncn(-c2cc(-c3c(F)cccc3C#N)nc3c2C(=O)NC3)n1` [I-232, 3-fluoro-2-(4-(3-isopropyl-1H-1,2,4-triazol-1-yl)-5-oxo-6,7-dihydro-5H-pyrrolo[3,4-b]pyridin-2-yl)benzonitrile], the EC50 [1] is reported as > 2000 nM, the Ki (JAK2) is reported as ≥ 1000 nM and the EC50 [2] is reported as 100 to 2000 nM. For the same molecule, the Ki (TYK2) was ≥ 1000 nM.
`CC(C)c1csc(-c2cc(-c3c(F)cccc3F)nc3c2C(=O)NC3)n1` [I-233, 2-(2,6-difluorophenyl)-4-(4-isopropylthiazol-2-yl)-6,7-dihydro-5H-pyrrolo[3,4-b]pyridin-5-one] was tested, and the EC50 [1] was > 2000 nM, the Ki (JAK2) was ≥ 1000 nM and the EC50 [2] was > 2000 nM. It also gave a Ki (TYK2) of 10 to 100 nM.
For `N#Cc1cccc(F)c1-c1cc(-c2ccn([C@@H]3COC[C@@H]3O)n2)c2c(n1)CNC2=O` [I-234, 3-fluoro-2-(4-(1-((3R,4R)-4-hydroxytetrahydrofuran-3-yl)-1H-pyrazol-3-yl)-5-oxo-6,7-dihydro-5H-pyrrolo[3,4-b]pyridin-2-yl)benzonitrile], the EC50 [1] was 100 to 2000 nM, the Ki (JAK2) was 100 to 1000 nM and the EC50 [2] was > 2000 nM. For the same molecule, the Ki (TYK2) was 10 to 100 nM.
